Test results reported in ChEMBL document CHEMBL4219210, “Discovery and biological evaluation of novel pyrazolopyridine derivatives as potent and orally available PI3Kδ inhibitors” (Bioorg Med Chem, 2018).
Each block holds one compound with its values, some of them ahead of it.

Experiments:
[1] = Stability in BALB/c mouse plasma assessed as parent compound remaining at 2 uM after 16 hrs in presence of NaF by LC-MS/MS analysis; format: ADME, cell-free; settings: read-out: Stability
[2] = Stability in BALB/c mouse plasma assessed as parent compound remaining at 2 uM after 16 hrs in absence of NaF by LC-MS/MS analysis; format: ADME, cell-free; settings: read-out: Stability
[3] = species on record: Homo sapiens; assay: Selectivity ratio of IC50 for recombinant human N-terminal His6-tagged full length PI3K p110alpha/untagged recombinant full length human p85alpha to IC50 for recombinant human full length N-terminal His6-tagged PI3K p110delta/untagged recombinant full length human p85alpha expressed in baculovirus infected Sf21 insect cells
[4] = biological target: PI3-kinase p110-delta/p85-alpha (Homo sapiens, UniProt O00329); assay: Inhibition of recombinant human full length N-terminal His6-tagged PI3K p110delta/untagged recombinant full length human p85alpha expressed in baculovirus infected Sf21 insect cells using PIP2 as substrate after 35 to 40 mins by HTRF assay
[5] = AUC in BALB/c mouse plasma at 3 mg/kg, po by LC-MS/MS analysis; format: ADME, organism-based
[6] = Cmax in BALB/c mouse plasma at 1 mg/kg, iv followed by po dosing at 3 mg/kg by LC-MS/MS analysis; format: ADME, organism-based
[7] = Tmax in BALB/c mouse plasma at 1 mg/kg, iv followed by po dosing at 3 mg/kg by LC-MS/MS analysis; format: ADME, organism-based
[8] = Half life in BALB/c mouse plasma at 1 mg/kg, iv followed by po dosing at 3 mg/kg by LC-MS/MS analysis; format: ADME, organism-based
[9] = Volume of distribution at steady state in BALB/c mouse plasma at 1 mg/kg, iv followed by po dosing at 3 mg/kg by LC-MS/MS analysis; format: ADME, organism-based; settings: read-out: Vdss
[10] = Total clearance in BALB/c mouse plasma at 1 mg/kg, iv followed by po dosing at 3 mg/kg by LC-MS/MS analysis; format: ADME, organism-based
[11] = biological target: PI3-kinase p110-alpha/p85-alpha (Homo sapiens, UniProt P42336); assay: Inhibition of recombinant human N-terminal His6-tagged full length PI3K p110alpha/untagged recombinant full length human p85alpha expressed in baculovirus infected Sf21 insect cells using phosphatidylinositol as substrate after 3 hrs by kinase glo reagent based luminescence assay
[12] = Oral bioavailability in BALB/c mouse plasma at 3 mg/kg by LC-MS/MS analysis; format: ADME, organism-based
[13] = biological target: PI3K p110 beta/p85 alpha (Homo sapiens, UniProt P42338); assay: Inhibition of recombinant human full length N-terminal His6-tagged PI3K p110beta/untagged recombinant full length human p85alpha expressed in baculovirus infected Sf21 insect cells using PIP2 as substrate after 35 to 40 mins by HTRF assay
[14] = biological target: Phosphatidylinositol 4,5-bisphosphate 3-kinase catalytic subunit gamma isoform (Homo sapiens, UniProt P48736); assay: Inhibition of recombinant human full length N-terminal His-tagged PI3Kgamma expressed in Sf9 insect cells using PIP2 as substrate after 35 to 40 mins by HTRF assay
Sequence of Phosphatidylinositol 4,5-bisphosphate 3-kinase catalytic subunit gamma isoform (P48736 whole entry, canonical isoform): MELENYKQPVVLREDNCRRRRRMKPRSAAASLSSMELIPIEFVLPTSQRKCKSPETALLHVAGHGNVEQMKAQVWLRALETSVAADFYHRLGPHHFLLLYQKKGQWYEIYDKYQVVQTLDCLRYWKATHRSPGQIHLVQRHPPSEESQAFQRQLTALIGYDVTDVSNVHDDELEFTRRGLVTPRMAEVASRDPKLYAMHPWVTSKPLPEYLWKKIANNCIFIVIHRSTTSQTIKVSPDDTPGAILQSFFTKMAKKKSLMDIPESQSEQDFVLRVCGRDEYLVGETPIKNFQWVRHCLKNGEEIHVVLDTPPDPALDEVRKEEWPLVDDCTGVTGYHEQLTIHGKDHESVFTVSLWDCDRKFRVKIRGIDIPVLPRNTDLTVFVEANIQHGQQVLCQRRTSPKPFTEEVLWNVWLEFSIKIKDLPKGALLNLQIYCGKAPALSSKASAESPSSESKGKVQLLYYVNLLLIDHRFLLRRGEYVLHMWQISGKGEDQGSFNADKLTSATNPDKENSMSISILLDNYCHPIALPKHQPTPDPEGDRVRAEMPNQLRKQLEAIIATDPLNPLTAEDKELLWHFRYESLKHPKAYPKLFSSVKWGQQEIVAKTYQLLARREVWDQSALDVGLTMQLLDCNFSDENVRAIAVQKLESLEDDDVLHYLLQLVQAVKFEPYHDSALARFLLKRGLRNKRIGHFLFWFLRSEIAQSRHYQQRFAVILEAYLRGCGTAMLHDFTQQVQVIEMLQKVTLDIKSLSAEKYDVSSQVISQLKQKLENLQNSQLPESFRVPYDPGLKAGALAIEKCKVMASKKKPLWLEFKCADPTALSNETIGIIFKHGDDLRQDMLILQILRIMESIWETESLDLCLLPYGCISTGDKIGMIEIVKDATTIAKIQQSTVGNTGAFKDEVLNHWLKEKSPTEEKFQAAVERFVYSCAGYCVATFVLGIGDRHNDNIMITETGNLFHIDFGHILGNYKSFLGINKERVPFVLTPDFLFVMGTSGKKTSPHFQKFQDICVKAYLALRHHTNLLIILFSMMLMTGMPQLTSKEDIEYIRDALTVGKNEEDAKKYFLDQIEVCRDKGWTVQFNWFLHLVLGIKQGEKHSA

Sequence of PI3-kinase p110-delta/p85-alpha (P27986 whole entry): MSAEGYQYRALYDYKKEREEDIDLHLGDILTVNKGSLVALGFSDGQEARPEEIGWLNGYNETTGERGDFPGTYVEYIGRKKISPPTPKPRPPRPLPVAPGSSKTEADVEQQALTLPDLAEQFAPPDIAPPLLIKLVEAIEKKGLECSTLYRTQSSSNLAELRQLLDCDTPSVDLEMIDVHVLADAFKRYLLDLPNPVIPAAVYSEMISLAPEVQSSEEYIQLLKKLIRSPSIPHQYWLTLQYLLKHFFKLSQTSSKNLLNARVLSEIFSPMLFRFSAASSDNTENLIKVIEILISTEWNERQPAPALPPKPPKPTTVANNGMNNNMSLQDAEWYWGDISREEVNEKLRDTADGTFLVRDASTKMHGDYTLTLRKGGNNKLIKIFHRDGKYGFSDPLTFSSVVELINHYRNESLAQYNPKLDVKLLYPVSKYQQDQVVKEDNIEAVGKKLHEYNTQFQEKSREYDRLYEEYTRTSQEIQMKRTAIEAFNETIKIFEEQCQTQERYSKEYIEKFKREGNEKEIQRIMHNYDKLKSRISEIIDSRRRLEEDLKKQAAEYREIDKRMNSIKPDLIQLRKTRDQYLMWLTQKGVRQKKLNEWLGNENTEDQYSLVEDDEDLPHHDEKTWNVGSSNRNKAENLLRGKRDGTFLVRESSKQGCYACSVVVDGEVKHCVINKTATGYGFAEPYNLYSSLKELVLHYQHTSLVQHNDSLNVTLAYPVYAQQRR
Sequence of PI3-kinase p110-delta/p85-alpha (O00329 whole entry): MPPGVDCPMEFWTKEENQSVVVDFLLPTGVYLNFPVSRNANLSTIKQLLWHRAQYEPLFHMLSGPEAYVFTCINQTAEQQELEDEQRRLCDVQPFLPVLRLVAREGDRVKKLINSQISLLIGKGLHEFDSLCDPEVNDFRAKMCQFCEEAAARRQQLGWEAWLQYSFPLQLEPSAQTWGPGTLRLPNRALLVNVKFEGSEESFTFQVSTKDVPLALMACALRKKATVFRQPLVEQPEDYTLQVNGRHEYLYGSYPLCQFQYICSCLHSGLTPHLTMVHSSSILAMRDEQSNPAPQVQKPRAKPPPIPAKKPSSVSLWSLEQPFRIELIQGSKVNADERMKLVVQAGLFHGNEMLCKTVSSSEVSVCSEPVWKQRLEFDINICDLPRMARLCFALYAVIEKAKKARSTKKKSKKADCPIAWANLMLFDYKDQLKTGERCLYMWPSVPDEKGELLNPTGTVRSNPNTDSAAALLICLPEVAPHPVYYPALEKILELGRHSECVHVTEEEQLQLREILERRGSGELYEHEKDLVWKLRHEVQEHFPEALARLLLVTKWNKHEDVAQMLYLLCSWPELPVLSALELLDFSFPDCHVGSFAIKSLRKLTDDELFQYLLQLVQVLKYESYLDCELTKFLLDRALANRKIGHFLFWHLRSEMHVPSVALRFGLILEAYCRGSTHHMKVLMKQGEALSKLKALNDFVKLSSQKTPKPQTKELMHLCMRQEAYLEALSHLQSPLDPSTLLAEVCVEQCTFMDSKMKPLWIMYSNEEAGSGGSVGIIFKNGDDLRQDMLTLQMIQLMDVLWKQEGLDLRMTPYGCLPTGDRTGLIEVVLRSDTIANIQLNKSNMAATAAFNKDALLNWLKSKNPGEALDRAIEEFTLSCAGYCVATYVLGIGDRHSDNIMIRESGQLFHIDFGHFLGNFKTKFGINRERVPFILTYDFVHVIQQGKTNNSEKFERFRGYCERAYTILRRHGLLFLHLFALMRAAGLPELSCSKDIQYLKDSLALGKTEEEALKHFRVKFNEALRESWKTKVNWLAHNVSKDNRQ
Sequence of PI3K p110 beta/p85 alpha (P27986 whole entry, canonical isoform): as the sequence (P27986 whole entry) above
Sequence of PI3K p110 beta/p85 alpha (P42338 whole entry, canonical isoform): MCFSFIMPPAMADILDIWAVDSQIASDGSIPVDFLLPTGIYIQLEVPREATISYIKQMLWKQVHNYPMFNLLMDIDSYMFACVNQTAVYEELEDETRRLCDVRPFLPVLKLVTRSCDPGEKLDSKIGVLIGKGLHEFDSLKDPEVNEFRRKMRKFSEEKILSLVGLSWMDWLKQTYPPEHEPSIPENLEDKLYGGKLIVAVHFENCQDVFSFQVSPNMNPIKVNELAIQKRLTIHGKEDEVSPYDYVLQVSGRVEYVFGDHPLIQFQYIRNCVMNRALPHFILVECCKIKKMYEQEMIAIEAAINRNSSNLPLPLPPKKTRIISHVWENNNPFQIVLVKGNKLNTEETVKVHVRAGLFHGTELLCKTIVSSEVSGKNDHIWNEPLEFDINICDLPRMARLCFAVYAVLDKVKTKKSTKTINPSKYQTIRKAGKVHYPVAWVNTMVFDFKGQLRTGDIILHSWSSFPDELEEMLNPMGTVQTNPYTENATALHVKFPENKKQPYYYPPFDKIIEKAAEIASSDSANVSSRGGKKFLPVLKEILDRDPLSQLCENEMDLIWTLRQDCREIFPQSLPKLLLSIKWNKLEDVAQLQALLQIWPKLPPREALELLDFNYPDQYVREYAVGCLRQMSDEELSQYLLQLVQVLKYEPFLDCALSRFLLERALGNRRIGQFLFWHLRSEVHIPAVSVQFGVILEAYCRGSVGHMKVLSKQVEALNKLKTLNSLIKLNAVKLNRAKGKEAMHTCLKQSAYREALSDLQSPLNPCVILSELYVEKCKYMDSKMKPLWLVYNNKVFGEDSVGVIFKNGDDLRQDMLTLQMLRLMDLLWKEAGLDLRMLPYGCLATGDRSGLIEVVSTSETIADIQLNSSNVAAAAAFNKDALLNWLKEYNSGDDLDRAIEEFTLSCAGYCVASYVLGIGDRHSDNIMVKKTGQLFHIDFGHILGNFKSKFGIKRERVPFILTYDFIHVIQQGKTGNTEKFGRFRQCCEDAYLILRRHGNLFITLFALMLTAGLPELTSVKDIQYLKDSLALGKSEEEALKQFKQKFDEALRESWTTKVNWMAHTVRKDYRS
Sequence of PI3-kinase p110-alpha/p85-alpha (P27986 whole entry): as the sequence (P27986 whole entry) above
Sequence of PI3-kinase p110-alpha/p85-alpha (P42336 whole entry): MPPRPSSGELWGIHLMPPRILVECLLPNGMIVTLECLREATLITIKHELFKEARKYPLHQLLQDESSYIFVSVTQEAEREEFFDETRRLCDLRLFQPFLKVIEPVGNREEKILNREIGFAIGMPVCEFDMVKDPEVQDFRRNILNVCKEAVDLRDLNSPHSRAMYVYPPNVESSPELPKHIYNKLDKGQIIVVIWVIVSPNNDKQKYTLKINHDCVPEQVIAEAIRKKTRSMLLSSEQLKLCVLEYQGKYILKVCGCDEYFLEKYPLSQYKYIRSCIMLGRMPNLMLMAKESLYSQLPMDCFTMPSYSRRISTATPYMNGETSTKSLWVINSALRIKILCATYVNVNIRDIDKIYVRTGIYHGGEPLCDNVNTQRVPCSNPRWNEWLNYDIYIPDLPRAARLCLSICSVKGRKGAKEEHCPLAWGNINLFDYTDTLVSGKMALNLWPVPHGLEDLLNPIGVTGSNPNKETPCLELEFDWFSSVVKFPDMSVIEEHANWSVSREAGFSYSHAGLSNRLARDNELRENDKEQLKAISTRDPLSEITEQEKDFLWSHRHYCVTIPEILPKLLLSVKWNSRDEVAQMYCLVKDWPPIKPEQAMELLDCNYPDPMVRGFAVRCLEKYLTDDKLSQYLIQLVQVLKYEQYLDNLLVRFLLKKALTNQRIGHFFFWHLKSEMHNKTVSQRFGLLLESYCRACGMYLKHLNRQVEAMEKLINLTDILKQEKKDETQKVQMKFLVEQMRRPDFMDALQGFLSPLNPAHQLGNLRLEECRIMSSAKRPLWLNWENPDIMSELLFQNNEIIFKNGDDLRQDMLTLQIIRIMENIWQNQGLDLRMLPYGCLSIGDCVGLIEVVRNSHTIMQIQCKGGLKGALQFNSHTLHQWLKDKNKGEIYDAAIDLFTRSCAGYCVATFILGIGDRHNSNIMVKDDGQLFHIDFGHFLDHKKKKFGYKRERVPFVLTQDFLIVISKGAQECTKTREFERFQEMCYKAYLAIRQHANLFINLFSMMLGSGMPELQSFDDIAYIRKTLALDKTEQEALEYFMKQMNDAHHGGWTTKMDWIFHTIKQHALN

remaining at 16 h, 2 µM [1]: 92.3% | remaining at 16 h, 2 µM [2]: 17.6% | IC50 [4]: 3.3 nM
Compound: COc1ncc(-c2cc(NC(=O)c3coc(CN4CCN(CCN5CCOCC5)CC4)n3)c3cnn(C)c3n2)cc1NS(C)(=O)=O
Ratio IC50 [3]: 250

AUC [5]: 45.6 ng·h/mL | Cmax [6]: 19.9 ng/mL | Tmax [7]: 120 min | half-life [8]: 22 min | Vd [9]: 4.03 L/kg | clearance [10]: 170 mL/min/kg | remaining at 16 h, 2 µM [1]: 79.7% | remaining at 16 h, 2 µM [2]: 0.4% | IC50 [4]: 8.4 nM | IC50 [11]: 330 nM | bioavailability [12]: 16%
Compound: COc1ncc(-c2cc(NC(=O)c3coc(CN4CCN(C(C)C)CC4)n3)c3cnn(C)c3n2)cc1NS(C)(=O)=O
Ratio IC50 [3]: 40

AUC [5]: 1640 ng·h/mL | Cmax [6]: 861 ng/mL | Tmax [7]: 15 min | half-life [8]: 151 min | Vd [9]: 2.37 L/kg | clearance [10]: 24.5 mL/min/kg | remaining at 16 h, 2 µM [2]: 109% | IC50 [4]: 5.3 nM | bioavailability [12]: 71.1%
Compound: COc1ncc(-c2cc(O[C@@H]3CCN(C(=O)C4CCOCC4)C3)c3cnn(C)c3n2)cc1NS(C)(=O)=O
Ratio IC50 [3]: 92

IC50 [4]: 16 nM
Compound: COc1ncc(-c2cc(O[C@@H]3CCN(C(=O)c4ccccc4)C3)c3cnn(C)c3n2)cc1NS(C)(=O)=O
Ratio IC50 [3]: 5.3

IC50 [4]: 38 nM
Compound: COc1ncc(-c2cc(O[C@@H]3CCN(S(=O)(=O)C4CCOCC4)C3)c3cnn(C)c3n2)cc1NS(C)(=O)=O
Ratio IC50 [3]: 2

IC50 [4]: 36 nM
Compound: COc1ncc(-c2cc(O[C@@H]3CCN(C(=O)CC4CCOCC4)C3)c3cnn(C)c3n2)cc1NS(C)(=O)=O
Ratio IC50 [3]: 17

IC50 [4]: 52 nM
Compound: COc1ncc(-c2cc(O[C@@H]3CCN(C4CCOCC4)C3)c3cnn(C)c3n2)cc1NS(C)(=O)=O
Ratio IC50 [3]: 21

IC50 [13]: 520 nM | AUC [5]: 346 ng·h/mL | Cmax [6]: 298 ng/mL | Tmax [7]: 15 min | half-life [8]: 84.6 min | Vd [9]: 2.82 L/kg | clearance [10]: 68.3 mL/min/kg | IC50 [4]: 4.5 nM | bioavailability [12]: 49% | IC50 [14]: > 10 µM
Compound: COc1ncc(-c2cc(O[C@@H]3CCN(Cc4c(C)nn(C)c4C)C3)c3cnn(C)c3n2)cc1NS(C)(=O)=O
Ratio IC50 [3]: 320

IC50 [4]: 18 nM
Compound: COc1ncc(-c2cc(O[C@@H]3CCN(CC4CCOCC4)C3)c3cnn(C)c3n2)cc1NS(C)(=O)=O
Ratio IC50 [3]: 29

IC50 [4]: 230 nM
Compound: COc1ncc(-c2cc(N(C)[C@@H]3CCN(C(=O)C4CCOCC4)C3)c3cnn(C)c3n2)cc1NS(C)(=O)=O

IC50 [4]: 4.5 nM
Compound: COc1ncc(-c2cc(O[C@@H]3CCN(Cc4ccccc4)C3)c3cnn(C)c3n2)cc1NS(C)(=O)=O
Ratio IC50 [3]: 160

IC50 [4]: 110 nM
Compound: COc1ncc(-c2cc(N[C@@H]3CCN(C(=O)C4CCOCC4)C3)c3cnn(C)c3n2)cc1NS(C)(=O)=O
Ratio IC50 [3]: 3.2

remaining at 16 h, 2 µM [1]: 90.3% | remaining at 16 h, 2 µM [2]: 0.5% | IC50 [4]: 0.75 nM
Compound: COc1ncc(-c2cc(NC(=O)c3coc(CN4CCN(Cc5cccnc5)CC4)n3)c3cnn(C)c3n2)cc1NS(C)(=O)=O
Ratio IC50 [3]: 290

IC50 [4]: 18 nM
Compound: COc1ncc(-c2cc(O[C@@H]3CCN(C(=O)C4(C)CCOCC4)C3)c3cnn(C)c3n2)cc1NS(C)(=O)=O

IC50 [4]: 53 nM
Compound: COc1ncc(-c2cc(O[C@H]3CCN(C(=O)C4CCOCC4)C3)c3cnn(C)c3n2)cc1NS(C)(=O)=O
Ratio IC50 [3]: 13

IC50 [4]: 8.2 nM
Compound: COc1ncc(-c2cc(O[C@@H]3CCN(Cc4cnn(C)c4)C3)c3cnn(C)c3n2)cc1NS(C)(=O)=O
Ratio IC50 [3]: 71
